Laboratory results taken from PubChem BioAssay (NCI).
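Cultured in 96-well plates, cells were exposed to test compound for 48 hours across five concentrations. GI50 marks 50% less growth. TGI: total growth inhibition.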

Tests used:
Assay in all cases: DTP human tumour cell line panel, 48 h
U251 CNS = tested on: U251 CNS
SK-MEL-28 melanoma = tested on: SK-MEL-28 melanoma
HCT-116 colon = tested on: HCT-116 colon
LOX IMVI melanoma = tested on: LOX IMVI melanoma
EKVX NSCLC = tested on: EKVX NSCLC
TK-10 renal = tested on: TK-10 renal
IGROV1 ovarian = tested on: IGROV1 ovarian
OVCAR-5 ovarian = tested on: OVCAR-5 ovarian
HS 578T breast = tested on: HS 578T breast
HL-60(TB) leukemia = tested on: HL-60(TB) leukemia
MOLT-4 leukemia = tested on: MOLT-4 leukemia
SNB-75 CNS = tested on: SNB-75 CNS
OVCAR-4 ovarian = tested on: OVCAR-4 ovarian
HT29 colon = tested on: HT29 colon
A498 renal = tested on: A498 renal
CCRF-CEM leukemia = tested on: CCRF-CEM leukemia
MALME-3M melanoma = tested on: MALME-3M melanoma
SN12C renal = tested on: SN12C renal
SF-268 CNS = tested on: SF-268 CNS
OVCAR-8 ovarian = tested on: OVCAR-8 ovarian
SW-620 colon = tested on: SW-620 colon
HOP-62 NSCLC = tested on: HOP-62 NSCLC
MDA-MB-231 breast = tested on: MDA-MB-231 breast
SK-MEL-2 melanoma = tested on: SK-MEL-2 melanoma
MCF7 breast = tested on: MCF7 breast
HCT-15 colon = tested on: HCT-15 colon
SNB-19 CNS = tested on: SNB-19 CNS
OVCAR-3 ovarian = tested on: OVCAR-3 ovarian
SR leukemia = tested on: SR leukemia
UO-31 renal = tested on: UO-31 renal
PC-3 prostate = tested on: PC-3 prostate
MDA-MB-435 = tested on: MDA-MB-435
COLO 205 colon = tested on: COLO 205 colon
NCI-H460 lung = tested on: NCI-H460 lung
KM12 colon = tested on: KM12 colon
SK-OV-3 ovarian = tested on: SK-OV-3 ovarian
HCC-2998 colon = tested on: HCC-2998 colon
ACHN renal = tested on: ACHN renal
M14 melanoma = tested on: M14 melanoma
CAKI-1 renal = tested on: CAKI-1 renal
RXF 393 renal = tested on: RXF 393 renal
786-0 renal = tested on: 786-0 renal
NCI-H522 lung = tested on: NCI-H522 lung
NCI-H23 lung = tested on: NCI-H23 lung
NCI-H226 lung = tested on: NCI-H226 lung
SF-295 CNS = tested on: SF-295 CNS
T-47D breast = tested on: T-47D breast
A549 NSCLC = tested on: A549 NSCLC
DU-145 prostate = tested on: DU-145 prostate
NCI/ADR-RES ovarian = tested on: NCI/ADR-RES ovarian
BT-549 breast = tested on: BT-549 breast
RPMI-8226 leukemia = tested on: RPMI-8226 leukemia
UACC-62 melanoma = tested on: UACC-62 melanoma
HOP-92 NSCLC = tested on: HOP-92 NSCLC
SF-539 CNS = tested on: SF-539 CNS
UACC-257 melanoma = tested on: UACC-257 melanoma
SK-MEL-5 melanoma = tested on: SK-MEL-5 melanoma
K-562 leukemia = tested on: K-562 leukemia

SMILES: Cn1c(=O)n(CCCO)c(=O)c2c1nc(Oc1cccc(OC(F)(F)F)c1)n2Cc1ccc(Cl)cc1
- GI50 (U251 CNS): 12.5 µM
- TGI (U251 CNS): 29.8 µM
- GI50 (SK-MEL-28 melanoma): 14.1 µM
- TGI (SK-MEL-28 melanoma): 29.5 µM
- GI50 (HCT-116 colon): 5.46 µM
- TGI (HCT-116 colon): 19.6 µM
- GI50 (LOX IMVI melanoma): 12 µM
- TGI (LOX IMVI melanoma): 28.8 µM
- GI50 (EKVX NSCLC): 12.4 µM
- TGI (EKVX NSCLC): 32.2 µM
- GI50 (TK-10 renal): 14.7 µM
- TGI (TK-10 renal): 30.1 µM
- GI50 (IGROV1 ovarian): 14.2 µM
- TGI (IGROV1 ovarian): 31.9 µM
- GI50 (OVCAR-5 ovarian): 13.1 µM
- TGI (OVCAR-5 ovarian): 26.3 µM
- GI50 (HS 578T breast): 16.3 µM
- TGI (HS 578T breast): 43.4 µM
- GI50 (HL-60(TB) leukemia): 5.78 µM
- TGI (HL-60(TB) leukemia): 22.9 µM
- GI50 (MOLT-4 leukemia): 5.21 µM
- TGI (MOLT-4 leukemia): 21.7 µM
- GI50 (SNB-75 CNS): 11.8 µM
- TGI (SNB-75 CNS): 26.7 µM
- GI50 (OVCAR-4 ovarian): 13.2 µM
- TGI (OVCAR-4 ovarian): 30.4 µM
- GI50 (HT29 colon): 8.01 µM
- TGI (HT29 colon): 23.2 µM
- GI50 (A498 renal): 13.8 µM
- TGI (A498 renal): 26.9 µM
- GI50 (CCRF-CEM leukemia): 14.6 µM
- TGI (CCRF-CEM leukemia): 39.8 µM
- GI50 (MALME-3M melanoma): 15.7 µM
- TGI (MALME-3M melanoma): 31.6 µM
- GI50 (SN12C renal): 13 µM
- TGI (SN12C renal): 29.8 µM
- GI50 (SF-268 CNS): 8.54 µM
- TGI (SF-268 CNS): 24.5 µM
- GI50 (OVCAR-8 ovarian): 14.4 µM
- TGI (OVCAR-8 ovarian): 37.6 µM
- GI50 (SW-620 colon): 13.1 µM
- TGI (SW-620 colon): 31.2 µM
- GI50 (HOP-62 NSCLC): 16 µM
- TGI (HOP-62 NSCLC): 33.3 µM
- GI50 (MDA-MB-231 breast): 14.6 µM
- TGI (MDA-MB-231 breast): 32.1 µM
- GI50 (SK-MEL-2 melanoma): 14.7 µM
- TGI (SK-MEL-2 melanoma): 32.6 µM
- GI50 (MCF7 breast): 4.77 µM
- TGI (MCF7 breast): 22.2 µM
- GI50 (HCT-15 colon): 10.2 µM
- TGI (HCT-15 colon): 28.7 µM
- GI50 (SNB-19 CNS): 18.4 µM
- TGI (SNB-19 CNS): 40.1 µM
- GI50 (OVCAR-3 ovarian): 11.4 µM
- TGI (OVCAR-3 ovarian): 25.2 µM
- GI50 (SR leukemia): 3.79 µM
- TGI (SR leukemia): 18.2 µM
- GI50 (UO-31 renal): 3.91 µM
- TGI (UO-31 renal): 17.7 µM
- GI50 (PC-3 prostate): 13.7 µM
- TGI (PC-3 prostate): 29.3 µM
- GI50 (MDA-MB-435): 11.8 µM
- TGI (MDA-MB-435): 27.2 µM
- GI50 (COLO 205 colon): 12.6 µM
- TGI (COLO 205 colon): 30.3 µM
- GI50 (NCI-H460 lung): 8.5 µM
- TGI (NCI-H460 lung): 23.9 µM
- GI50 (KM12 colon): 13.5 µM
- TGI (KM12 colon): 32.4 µM
- GI50 (SK-OV-3 ovarian): 18.1 µM
- TGI (SK-OV-3 ovarian): 34 µM
- GI50 (HCC-2998 colon): 15 µM
- TGI (HCC-2998 colon): 33.9 µM
- GI50 (ACHN renal): 10.7 µM
- TGI (ACHN renal): 23.4 µM
- GI50 (M14 melanoma): 11.8 µM
- TGI (M14 melanoma): 27.4 µM
- GI50 (CAKI-1 renal): 9.05 µM
- TGI (CAKI-1 renal): 22.6 µM
- GI50 (RXF 393 renal): 11.2 µM
- TGI (RXF 393 renal): 27.3 µM
- GI50 (786-0 renal): 12.5 µM
- TGI (786-0 renal): 27.4 µM
- GI50 (NCI-H522 lung): 6.06 µM
- TGI (NCI-H522 lung): 23.2 µM
- GI50 (NCI-H23 lung): 15.8 µM
- TGI (NCI-H23 lung): 37.6 µM
- GI50 (NCI-H226 lung): 16.8 µM
- TGI (NCI-H226 lung): 38.4 µM
- GI50 (SF-295 CNS): 13 µM
- TGI (SF-295 CNS): 28.5 µM
- GI50 (T-47D breast): 3.78 µM
- TGI (T-47D breast): 21 µM
- GI50 (A549 NSCLC): 11.2 µM
- TGI (A549 NSCLC): 25.5 µM
- GI50 (DU-145 prostate): 13.2 µM
- TGI (DU-145 prostate): 27.5 µM
- GI50 (NCI/ADR-RES ovarian): 11.4 µM
- TGI (NCI/ADR-RES ovarian): 33.4 µM
- GI50 (BT-549 breast): 12.9 µM
- TGI (BT-549 breast): 26.4 µM
- GI50 (RPMI-8226 leukemia): 10.4 µM
- TGI (RPMI-8226 leukemia): 51.3 µM
- GI50 (UACC-62 melanoma): 13.2 µM
- TGI (UACC-62 melanoma): 29.1 µM
- GI50 (HOP-92 NSCLC): 11 µM
- TGI (HOP-92 NSCLC): 24.5 µM
- GI50 (SF-539 CNS): 12.9 µM
- TGI (SF-539 CNS): 26.9 µM
- GI50 (UACC-257 melanoma): 17.5 µM
- TGI (UACC-257 melanoma): 34.5 µM
- GI50 (SK-MEL-5 melanoma): 16 µM
- TGI (SK-MEL-5 melanoma): 30.9 µM
- GI50 (K-562 leukemia): 7.72 µM
- TGI (K-562 leukemia): 68.8 µM
